Laboratory results published in patent US20240255531A1, “MATURE ADRENOMEDULLIN FOR THERAPY STRATIFICATION OF CORTICOSTEROIDS IN CRITICALLY ILL PATIENTS” (priority 2021, published 2024).
Like-named read-outs stand apart in the source and are kept apart here. Blank lines part the entries; values can stand above or below the molecule they belong to.

Experiments:
[1] = relative to hydrocortisone; cited from earlier work
[2] = relative to hydrocortisone; cited from earlier work; remark: listed apart in the source
[3] = tested on: hypothalamic-pituitary-adrenal axis suppression; conditions: cited from earlier work
[4] = tested on: adult patients with severe sepsis who were not in septic shock; experiment: HYPRESS case-control analysis, hydrocortisone vs. placebo by bio-ADM </>70 pg/mL (PP population); assay type: in vivo, human; conditions: for patients who developed shock: PP population
Protocol: The HYPRESS study is a double-blind, randomized clinical trial conducted from Jan. 13, 2009, to Aug. 27, 2013, with a follow-up of 180 days until Feb. 23, 2014 (Keh et al. 2016. JAMA 316(17): 1775-1785). The trial was performed in 34 intermediate or intensive care units of university and community hospitals in Germany, and it included 380 adult patients with severe sepsis who were not in septic shock.
Patients were screened in intermediate care units or intensive care units (ICUs) of university and community hospitals for eligibility, and written informed consent was obtained from patients, patient-authorized representatives, or legal representatives. Patients were enrolled if they met all inclusion criteria: (1) provided informed consent; (2) had evidence of infection; (3) had evidence of a systemic response to infection, defined as at least 2 systemic inflammatory response syndrome criteria 12; and (4) had evidence of organ dysfunction present for not longer than 48 hours. The main exclusion criterion was septic shock. Other exclusion criteria were being younger than 18 years, having known hypersensitivity to hydrocortisone or mannitol (placebo), or having a history of glucocorticoid medication with indication for continuation of therapy or other indications for treatment with glucocorticoids. Patients were not excluded for using etomidate within 72 hours before enrolment, using a short course of glucocorticoids within 72 hours before enrolment, or using topical or inhaled glucocorticoids.
Septic shock was defined as sepsis-induced hypotension despite adequate volume status for longer than 4 hours (ie, mean arterial pressure <65 mm Hg, systolic arterial pressure <90 mm Hg, or the use of vasopressors to keep mean arterial pressure ≥65 mm Hg or systolic arterial pressure ≥90 mm Hg). […] Adequate volume status was defined as a central venous pressure of 8 mm Hg or greater (≥12 mm Hg in ventilated patients) and a central venous oxygen saturation greater than 70%. For fluid replacement, patients were to receive at least 500 to 1000 mL of crystalloids or 300 to 500 mL of colloids over 30 minutes. The use of hydroxyethyl starch preparations was discouraged owing to possible harmful effects on kidney function. Use of vasopressors was defined as therapy with dopamine at a dosage of at least 5 μg/kg/min or with any dose of epinephrine, norepinephrine, vasopressin, or other vasopressors.
The study medication (hydrocortisone and placebo) was produced and released by BAG Health Care GmbH. The medication was delivered in boxes, each containing 17 brown glass vials for 1 patient. Each vial contained 100 mg of lyophilized hydrocortisone hydrogen succinate or the same amount of lyophilized mannitol as placebo, which was indistinguishable from hydrocortisone. The medication was administered as an intravenous bolus of 50 mg, followed by a 24-hour continuous infusion of 200 mg on 5 days, 100 mg on days 6 and 7, 50 mg on days 8 and 9, and 25 mg on days 10 and 11.
For the present analysis, a total of n=110 cases and controls from the intention-to-treat data set of the SepNet study HYPRESS study (ClinicalTrials.gov number: NCT00670254) were selected, of which n=97 were treated according to protocol and selected for the analysis. Patients with and without septic shock during their ICU stay were selected at a 1:1 ratio. Control patients were matched according to demographics, organ dysfunction, concomitant medication and other outcomes.
The primary end point for the case-control study was the occurrence of septic shock within 28 days, or discharge from the ICU. The goal was to identify potential interaction between the levels of bio-ADM (</>70 pg/mL) and treatment arm (hydrocortisone vs. placebo).

[5] = tested on: patients with septic shock; conditions: hydrocortisone alone; cited from earlier work
[6] = tested on: patients at risk for sepsis / septic shock; conditions: preventive administration; cited from earlier work
[7] = Stability of human Adrenomedullin in human Citrate plasma at 24° C.; assay type: in vitro ADME; conditions: for recovery: 10 ng ADM/ml, read-out: Average ADM recovery (N = 5); for Average loss of immune reactivity: average over time points
Protocol: Human ADM was diluted in human Citrate plasma (n=5, final concentration 10 ng ADM/ml) and incubated at 24° C. At selected time points, aliquots were frozen at −20° C.

Structure (SMILES): CC(=O)OCC(=O)[C@@]1(O)CC[C@H]2[C@@H]3CCC4=CC(=O)CC[C@]4(C)[C@H]3C(=O)C[C@@]21C [Cortisone acetate]
Potency relat. to hydrocortisone, Anti-inflammatory [1]: 0.8
Potency relat. to hydrocortisone, Mineralcorticoid [2]: 0.8
Half-life duration of action [3]: 8 to 12 h

Structure (SMILES): C[C@]12CCC(=O)C=C1CC[C@H]1[C@@H]3CC[C@](O)(C(=O)CO)[C@@]3(C)C[C@H](O)[C@@]12F [Fludrocortisone]
Half-life duration of action [3]: 24 to 36 h

Structure (SMILES): C[C@]12CCC(=O)C=C1CC[C@@H]1[C@@H]2[C@@H](O)C[C@@]2(C)[C@H]1CC[C@]2(O)C(=O)CO [Hydrocortisone]
needed additional treatment with Benzodiazepine ([4]; patients with bio-AD<70 pg/mL): 12.0%
median length of stay ([4]; patients with bio-ADM<70 pg/mL): 22 days
needed a surgical intervention ([4]; patients with bio-ADM<70 pg/mL): 48.0%
needed additional treatment with Propofol ([4]; patients with bio-ADM<70 pg/mL): 16.0%
needed additional treatment with opioids ([4]; patients with bio-ADM<70 pg/mL): 40.0%
survived the 90-day follow up ([4]; patients with bio-ADM<70 pg/mL): 76.0%
patients who developed shock ([4]; patients with bio-ADM<70 pg/mL): 40%
median length of stay ([4]; patients with bio-ADM>70 pg/mL): 25 days
needed a surgical intervention ([4]; patients with bio-ADM>70 pg/mL): 27.3%
needed additional treatment with Benzodiazepine ([4]; patients with bio-ADM>70 pg/mL): 13.6%
needed additional treatment with Propofol ([4]; patients with bio-ADM>70 pg/mL): 4.5%
needed additional treatment with opioids ([4]; patients with bio-ADM>70 pg/mL): 31.8%
survived the 90-day follow up ([4]; patients with bio-ADM>70 pg/mL): 72.7%
patients who developed shock ([4]; patients with bio-ADM>70 pg/mL): 50%
Potency relat. to hydrocortisone, Anti-inflammatory [1]: 1
Potency relat. to hydrocortisone, Mineralcorticoid [2]: 1
survival effect [5]: no survival effect
risk of a septic shock within 14 days [6]: doesn't reduces the risk
Half-life duration of action [3]: 8 to 12 h

Structure (SMILES): C[C@H]1C[C@@H]2[C@H]([C@@H](O)C[C@@]3(C)[C@H]2CC[C@]3(O)C(=O)CO)[C@@]2(C)C=CC(=O)C=C12 [Methylprednisolone]
Half-life duration of action [3]: 12 to 36 h

Structure (SMILES): C[C@]12C=CC(=O)C=C1CC[C@@H]1[C@@H]2[C@@H](O)C[C@@]2(C)[C@H]1CC[C@]2(O)C(=O)CO [Prednisolone]
Potency relat. to hydrocortisone, Anti-inflammatory [1]: 4
Potency relat. to hydrocortisone, Mineralcorticoid [2]: 0.8
Half-life duration of action [3]: 12 to 36 h

Structure (SMILES): C[C@]12C=CC(=O)C=C1CC[C@@H]1[C@@H]2C(=O)C[C@@]2(C)[C@H]1CC[C@]2(O)C(=O)CO [Prednisone]
Half-life duration of action [3]: 12 to 36 h

recovery ([7]; 0 h): 100%
Loss of immune reactivity %/h ([7]; 2 h): 0.4 %/h
recovery ([7]; 2 h): 99.2%
Loss of immune reactivity %/h ([7]; 4 h): 0.8 %/h
recovery ([7]; 4 h): 96.4%
Loss of immune reactivity %/h ([7]; 8 h): 1.5 %/h
recovery ([7]; 8 h): 88.2%
Average loss of immune reactivity [7]: Average: 0.9%/h
Average loss of immune reactivity ([7]; listed as ADM): 0.9 %/h
metabolised at 2 h, 10 ng/ml ([7]; human citrate plasma, 2 h, read-out: Relative loss of immune reactivity): 0.8%
metabolised at 4 h, 10 ng/ml ([7]; human citrate plasma, 4 h, read-out: Relative loss of immune reactivity): 3.6%
metabolised at 8 h, 10 ng/ml ([7]; human citrate plasma, 8 h, read-out: Relative loss of immune reactivity): 11.8%
Structure (SMILES): CC[C@H](C)[C@H](NC(=O)[C@H](CCC(N)=O)NC(=O)[C@H](Cc1c[nH]cn1)NC(=O)[C@H](C)NC(=O)[C@H](CC(C)C)NC(=O)[C@H](CCCCN)NC(=O)[C@H](CCC(N)=O)NC(=O)[C@@H](NC(=O)[C@@H](NC(=O)[C@@H]1CSSC[C@H](NC(=O)CNC(=O)[C@H](Cc2ccccc2)NC(=O)[C@H](CO)NC(=O)[C@H](CCCNC(=N)N)NC(=O)[C@H](CC(C)C)NC(=O)CNC(=O)[C@H](CCC(N)=O)NC(=O)[C@H](Cc2ccccc2)NC(=O)[C@H](CC(N)=O)NC(=O)[C@H](CC(N)=O)NC(=O)[C@H](CCSC)NC(=O)[C@H](CO)NC(=O)[C@H](CCC(N)=O)NC(=O)[C@H](CCCNC(=N)N)NC(=O)[C@@H](N)Cc2ccc(O)cc2)C(=O)N[C@@H](CCCNC(=N)N)C(=O)N[C@@H](Cc2ccccc2)C(=O)NCC(=O)N[C@@H]([C@@H](C)O)C(=O)N1)[C@@H](C)O)C(C)C)C(=O)N[C@@H](Cc1ccc(O)cc1)C(=O)N[C@@H](CCC(N)=O)C(=O)N[C@@H](Cc1ccccc1)C(=O)N[C@H](C(=O)N[C@@H](CC(=O)O)C(=O)N[C@@H](CCCCN)C(=O)N[C@@H](CC(=O)O)C(=O)N[C@@H](CCCCN)C(=O)N[C@@H](CC(=O)O)C(=O)N[C@@H](CC(N)=O)C(=O)N[C@H](C(=O)N[C@@H](C)C(=O)N1CCC[C@H]1C(=O)N[C@@H](CCCNC(=N)N)C(=O)N[C@@H](CO)C(=O)N[C@@H](CCCCN)C(=O)N[C@H](C(=O)N[C@@H](CO)C(=O)N1CCC[C@H]1C(=O)N[C@@H](CCC(N)=O)C(=O)NCC(=O)N[C@@H](Cc1ccc(O)cc1)C(N)=O)[C@@H](C)CC)C(C)C)[C@@H](C)O [hADM]
